By EC50 is commonly meant the concentration needed to bring the measured effect to its halfway point.

Structures can show the parent of a compound that is named as a salt.

Series [1] has as its system PBMCs from whole blood activated by SEB. The class given is cell-based, human.
A short description of series [2]: Clinical study of PDR001 in combination with a CXCR2 inhibitor (DLT evaluation). The class given is in vivo, human. The conditions noted are these: PDR001 400 mg Q4W + CXCR2 inhibitor 75 mg BID 2 weeks on/2 week off; seven patients dosed, two completed 56-day DLT period. Here is the method: The primary objective of this study is to combine the PDR001 checkpoint inhibitor with the CXCR2 inhibitor, 6-chloro-3-((3,4-dioxo-2-(pentan-3-ylamino)cyclobut-1-en-1-yl)amino)-2-hydroxy-N-methoxy-N-methylbenzenesulfonamide choline salt, to identify the doses and schedule for combination therapy and to preliminarily assess the safety, tolerability, pharmacological and clinical activity of these combinations.
Patients are dosed on a flat scale and not by body weight or body surface area. Dosing of the CXCR2 inhibitor occurs immediately after completion of the PDR001 infusion during clinic visits. Patients are treated with 400 mg PDR001 every four weeks (i.e., Q4W). The CXCR2 inhibitor is administered orally twice daily, approximately 12 hours apart, with approximately 240 mL of water on an empty stomach at least 1 hour before or 2 hours after a meal, at about the same time every day. Patients are instructed not to chew the medication but to swallow it whole. The CXCR2 inhibitor is administered at a starting dose of 75 mg BID, two weeks on/two weeks off in each 28-day cycle or one week on/two weeks off in each 21-day cycle. If tolerated, the dose may be escalated to 150 mg BID two weeks on/two weeks off or one week on/two weeks off. […] Multiple dose levels below the MTD may be evaluated simultaneously in order to obtain PK and PD data across a range of doses and to establish the MTD/RDE. […]

The test system of series [3] is neutrophils in whole human blood. Briefly: rhGROα-induced neutrophil shape change in whole human blood. The class given is cell-based.
Another series concerns the target human CXCR2 receptor (Homo sapiens, UniProt P25025). The conditions noted are these: membranes from CHO cells expressing human CXCR2 receptor.
The subject of the next series is neutrophils. Briefly: rhGROα-induced neutrophil migration. The class given is cell-based.
For a further series, the system named is MC38 tumors. As to the kind of experiment: PD-L1 expression on tumor-infiltrating dendritic cells and macrophages in MC38 colon carcinoma mouse model. The class given is in vivo, C57BL/6 mice. The following applies: combination BLZ945 200 mg/kg p.o. weekly + 5D12 10 mg/kg i.p. biweekly, day 9. Here is the method:
C57BL/6 mice (Charles River Laboratories) were implanted with 1×10^6 MC38 cells subcutaneously. When tumors were 70-100 mm3 in size, mice were randomized into groups of 8 animals and treated with an anti-TIM-3 antibody (5D12), a CSF-1R binding agent (BLZ945), both 5D12 antibody and BLZ945, or with vehicle control. Mice were dosed orally (p.o.) or intraperitoneally (i.p.). The groups of mice were dosed as follows:
Group 1) Vehicle p.o+antibody Isotype (mIgG1) i.p; Group 2) BLZ945 200 mg/kg p.o+antibody isotype (mIgG1) i.p; Group 3) Vehicle p.o+5D12 (mouse anti-TIM-3) 10 mg/kg i.p; Group 4) BLZ945 200 mg/kg p.o+5D12 (mouse anti-TIM-3) 10 mg/kg i.p. BLZ945 was dosed weekly and 5D12 was dosed biweekly.
At Day 9 post-treatment initiation, mice were sacrificed. Tumors were harvested and processed into single cell suspensions for analysis by flow cytometry. The single cell suspension was generated using a combination of dispase, collagenase and DNase 1. The tumor infiltrating immune cells were analyzed by flow cytometry. Samples were acquired on a BD Fortessa and data was analyzed using Flowjo. Populations were defined as follows: dendritic cells (CD45+CD11b+Ly6C-MHC-II+Ly6G-F480−) and macrophages (CD45+CD11b+Ly6C-MHC-II+Ly6G-F480+). Levels of PD-L1 expression were analyzed as the mean fluorescence intensity of signal in the PD-L1 channel. […]

Sequence of human CXCR2 receptor (P25025 whole entry): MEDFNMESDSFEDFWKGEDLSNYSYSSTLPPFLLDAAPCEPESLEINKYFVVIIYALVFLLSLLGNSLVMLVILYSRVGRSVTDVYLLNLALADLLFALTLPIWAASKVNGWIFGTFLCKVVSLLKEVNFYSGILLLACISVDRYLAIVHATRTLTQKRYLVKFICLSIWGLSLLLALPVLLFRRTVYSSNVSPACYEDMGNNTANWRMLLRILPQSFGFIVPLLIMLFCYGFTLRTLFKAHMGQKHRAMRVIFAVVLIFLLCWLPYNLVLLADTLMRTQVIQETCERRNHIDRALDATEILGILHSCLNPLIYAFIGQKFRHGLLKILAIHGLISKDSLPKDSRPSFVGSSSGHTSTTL

For “PDR001: anti-PD-1 antibody molecule (PD-1 inhibitor, Novartis), also known as Spartalizumab”, the “EC50 in SEB activation assay” value in series [1] is 0.5 µg/mL. Further, the concentration giving a half-maximal response (EC50) in series [1] (read-out: EC50 in SEB activation assay) was 3.68 nM. Further, the “dose limiting toxicity (DLT)” value in series [2] is listed as “no patient has developed a DLT”.
For the molecule `CCC(CC)Nc1c(Nc2ccc(Cl)c(S(=O)(=O)N(C)OC)c2O)c(=O)c1=O` [6-chloro-3-((3,4-dioxo-2-(pentan-3-ylamino)cyclobut-1-en-1-yl)amino)-2-hydroxy-N-methoxy-N-methylbenzenesulfonamide choline salt], the “neutrophil shape change induced by rhGROα” value in series [3] is “dose-dependent inhibition”. For the same molecule, the “GROα and IL-8-stimulated [35S]GTPγS binding” value on human CXCR2 receptor is “inhibits”. Moreover, the rhGROα-induced neutrophil migration result with neutrophils is “dose-dependent inhibition”. Moreover, the “dose limiting toxicity (DLT)” value in series [2] is recorded as “no patient has developed a DLT”.
Regarding `CNC(=O)c1cc(Oc2ccc3nc(N[C@@H]4CCCC[C@H]4O)sc3c2)ccn1` [BLZ945, 4-((2-(((1R,2R)-2-hydroxycyclohexyl)amino)benzo[d]thiazol-6-yl)oxy)-N-methylpicolinamide], in the series with MC38 tumors, the “PD-L1 expression (mean fluorescence intensity) in F480+ and F480- tumor-infiltrating cells” value is given as “enhancement”.

B1: LAG525: LAG-3 inhibitor (Novartis), anti-LAG-3 antibody molecule (antibody, chains of the INN, looked up, V domains shown)
VH: QVQLVQSGAEVKKPGASVKVSCKASGFTLTNYGMNWVRQARGQRLEWIGWINTDTGEPTYADDFKGRFVFSLDTSVSTAYLQISSLKAEDTAVYYCARNPPYYYGTNNAEAMDYWGQGTTVTVSS
VL: DIQMTQSPSSLSASVGDRVTITCSSSQDISNYLNWYLQKPGQSPQLLIYYTSTLHLGVPSRFSGSGSGTEFTLTISSLQPDDFATYYCQQYYNLPWTFGQGTKVEIK
On to B1, for which, in series [1] (increasing doses of LAG525 with fixed 0.5 ug/ml each of PDR001 and GWN323), the “IL-2 production in the SEB assay on titration” value was “dose-responsive production of IL-2”.
